The test system of the series is MDA-MB-231 cells. As to the kind of experiment: In vitro cytotoxicity, MTT assay. The following applies: various concentrations of PTX, 72 h. Background: Tetrazolium dyes change colour on reduction, which living cells bring about.

The source of these data is patent US20150065443A1, “EMBELIN-BASED DELIVERY SYSTEM FOR WATER-INSOLUBLE ACTIVE AGENTS” (priority 2012, published 2015).

Turning to `CC(=O)O[C@H]1C(=O)[C@@]2(C)[C@H]([C@H](OC(=O)c3ccccc3)[C@]3(O)C[C@H](OC(=O)[C@H](O)[C@@H](NC(=O)c4ccccc4)c4ccccc4)C(C)=C1C3(C)C)[C@]1(OC(C)=O)CO[C@@H]1C[C@@H]2O` [PTX, Paclitaxel], the Cytotoxicity entry is on record as “exhibited cytotoxicity on MDA-MB-231 cells in a dose-dependent manner”.
